Test system: M. tuberculosis
Assay: Extracellular activity against M. tuberculosis in cholesterol media (Alamar Blue reduction assay)
Assay type: cell-based, Mycobacterium tuberculosis
Conditions: Mycobacterium tuberculosis, 240 h, 7H12-Cholesterol media, 10 days; read-out: Cholesterol broth: alamar blue--EC50

Compound	EC50 [µM]
Cc1noc(CC(=O)N2CCC(c3nc(C4CC4(C)C)no3)CC2)n1 (stereo not drawn) [Compound 28, 1-(4-(3-(2,2-dimethylcyclopropyl)-1,2,4-oxadiazol-5-yl)piperidin-1-yl)-2-(3-methyl-1,2,4-oxadiazol-5-yl)ethan-1-one]	> 25
Cc1noc(CC(=O)N2CCC(c3nc(C4CCC(C)(C)C4)no3)CC2)n1 (stereo not drawn) [Compound 29, 1-(4-(3-(3,3-dimethylcyclopentyl)-1,2,4-oxadiazol-5-yl)piperidin-1-yl)-2-(3-methyl-1,2,4-oxadiazol-5-yl)ethan-1-one]	3.73
Cc1noc(CC(=O)N2CCC(c3nc(C4CCC(C)(C)CC4)no3)CC2)n1 [Compound 30, 1-(4-(3-(4,4-dimethylcyclohexyl)-1,2,4-oxadiazol-5-yl)piperidin-1-yl)-2-(3-methyl-1,2,4-oxadiazol-5-yl)ethan-1-one]	1.14
Cc1noc(CC(=O)N2CCC(c3nc(C4C[C@@H](C)C[C@@H](C)C4)no3)CC2)n1 (stereo partly drawn) [Compound 31, 1-(4-(3-((3R,5S)-3,5-dimethylcyclohexyl)-1,2,4-oxadiazol-5-yl)piperidin-1-yl)-2-(3-methyl-1,2,4-oxadiazol-5-yl)ethan-1-one]	> 25
Cc1noc(CC(=O)N2CCC(c3nc(-c4ccc(Cl)cc4Cl)no3)CC2)n1 [Compound 32, 1-(4-(3-(2,4-dichlorophenyl)-1,2,4-oxadiazol-5-yl)piperidin-1-yl)-2-(3-methyl-1,2,4-oxadiazol-5-yl)ethan-1-one]	0.718
Cc1noc(CC(=O)N2CCC(c3nc(-c4ccc(Cl)c(Cl)c4)no3)CC2)n1 [Compound 33, 1-(4-(3-(3,4-dichlorophenyl)-1,2,4-oxadiazol-5-yl)piperidin-1-yl)-2-(3-methyl-1,2,4-oxadiazol-5-yl)ethan-1-one]	0.14
Cc1noc(CC(=O)N2CCC(c3nc(-c4ccc(Cl)cc4)no3)CC2)n1 [Compound 34, 1-(4-(3-(4-chlorophenyl)-1,2,4-oxadiazol-5-yl)piperidin-1-yl)-2-(3-methyl-1,2,4-oxadiazol-5-yl)ethan-1-one]	0.399
Cc1noc(CC(=O)N2CCC(n3nnc(-c4ccc(Cl)cc4)n3)CC2)n1 [Compound 35, 1-(4-(5-(4-chlorophenyl)-2H-tetrazol-2-yl)piperidin-1-yl)-2-(3-methyl-1,2,4-oxadiazol-5-yl)ethan-1-one]	1.08
Cc1noc(CC(=O)N2CCC(c3nc(-c4cccc(Cl)c4)no3)CC2)n1 [Compound 36, 1-(4-(3-(3-chlorophenyl)-1,2,4-oxadiazol-5-yl)piperidin-1-yl)-2-(3-methyl-1,2,4-oxadiazol-5-yl)ethan-1-one]	1.63
Cc1noc(CC(=O)N2CCC(c3nc(C4CCC(C(F)(F)F)CC4)no3)CC2)n1 (stereo not drawn) [Compound 37, 2-(3-methyl-1,2,4-oxadiazol-5-yl)-1-(4-(3-(4-(trifluoromethyl)cyclohexyl)-1,2,4-oxadiazol-5-yl)piperidin-1-yl)ethan-1-one]	7.02
Cc1noc(CC(=O)N2CCC(c3nc(-c4ccc(Cl)c(OC(F)(F)F)c4)no3)CC2)n1 [Compound 38]	1.05
Cc1noc(CC(=O)N2CCC(c3nc(-c4ccc(OC(F)(F)F)cc4)no3)CC2)n1 [Compound 39, 2-(3-methyl-1,2,4-oxadiazol-5-yl)-1-(4-(3-(4-(trifluoromethoxy)phenyl)-1,2,4-oxadiazol-5-yl)piperidin-1-yl)ethan-1-one]	0.657
Cc1noc(CC(=O)N2CCC(c3nc(C4CCC(F)(F)C4)no3)CC2)n1 (stereo not drawn) [Compound 40, 1-(4-(3-(3,3-difluorocyclopentyl)-1,2,4-oxadiazol-5-yl)piperidin-1-yl)-2-(3-methyl-1,2,4-oxadiazol-5-yl)ethan-1-one]	> 25
Cc1noc(CC(=O)N2CCC(c3nc(C4CCC(F)(F)CC4)no3)CC2)n1 [Compound 41, 1-(4-(3-(4,4-difluorocyclohexyl)-1,2,4-oxadiazol-5-yl)piperidin-1-yl)-2-(3-methyl-1,2,4-oxadiazol-5-yl)ethan-1-one]	> 10
Cc1noc(CC(=O)N2CCC(O)(c3nc(C4CCC(F)(F)CC4)no3)CC2)n1 [Compound 42, 1-(4-(3-(4,4-difluorocyclohexyl)-1,2,4-oxadiazol-5-yl)-4-hydroxypiperidin-1-yl)-2-(3-methyl-1,2,4-oxadiazol-5-yl)ethan-1-one]	> 10
Cc1noc(CC(=O)N2CCC(c3noc(C45CC(F)(C4)C5)n3)CC2)n1 [Compound 43, 1-(4-(5-(3-fluorobicyclo[1.1.1]pentan-1-yl)-1,2,4-oxadiazol-3-yl)piperidin-1-yl)-2-(3-methyl-1,2,4-oxadiazol-5-yl)ethan-1-one]	> 25
Cc1noc(CC(=O)N2CCC(c3nc(-c4ccc(Cl)c(F)c4)no3)CC2)n1 [Compound 44, 1-(4-(3-(4-chloro-3-fluorophenyl)-1,2,4-oxadiazol-5-yl)piperidin-1-yl)-2-(3-methyl-1,2,4-oxadiazol-5-yl)ethan-1-one]	0.229
Cc1noc(CC(=O)N2CCC(c3nc(-c4cc(F)cc(Cl)c4)no3)CC2)n1 [Compound 45, 1-(4-(3-(3-chloro-5-fluorophenyl)-1,2,4-oxadiazol-5-yl)piperidin-1-yl)-2-(3-methyl-1,2,4-oxadiazol-5-yl)ethan-1-one]	2.19

Compound	EC50 [µM]
Cc1noc(CC(=O)N2CCC(c3nc(-c4ccc(F)cc4Cl)no3)CC2)n1 [Compound 46, 1-(4-(3-(2-chloro-4-fluorophenyl)-1,2,4-oxadiazol-5-yl)piperidin-1-yl)-2-(3-methyl-1,2,4-oxadiazol-5-yl)ethan-1-one]	2.97
Cc1noc(CC(=O)N2CCC(c3nc(-c4ccc(F)c(F)c4)no3)CC2)n1 [Compound 47, 1-(4-(3-(3,4-difluorophenyl)-1,2,4-oxadiazol-5-yl)piperidin-1-yl)-2-(3-methyl-1,2,4-oxadiazol-5-yl)ethan-1-one]	1.45
Cc1noc(CC(=O)N2CCC(c3nc(-c4ccc(F)c(OC(F)(F)F)c4)no3)CC2)n1 [Compound 48, 1-(4-(3-(4-fluoro-3-(trifluoromethoxy)phenyl)-1,2,4-oxadiazol-5-yl)piperidin-1-yl)-2-(3-methyl-1,2,4-oxadiazol-5-yl)ethan-1-one]	0.73
Cc1noc(CC(=O)N2CCC(c3nc(-c4ccc(F)cc4)no3)CC2)n1 [Compound 49, 1-(4-(3-(4-fluorophenyl)-1,2,4-oxadiazol-5-yl)piperidin-1-yl)-2-(3-methyl-1,2,4-oxadiazol-5-yl)ethan-1-one]	1.44
Cc1noc(CC(=O)N2CCC(c3cc(-c4ccc(F)cc4)no3)CC2)n1 [Compound 50, 1-(4-(3-(4-fluorophenyl)isoxazol-5-yl)piperidin-1-yl)-2-(3-methyl-1,2,4-oxadiazol-5-yl)ethan-1-one]	> 10
Cc1noc(CC(=O)N2CCC(n3nnc(-c4ccc(F)cc4)n3)CC2)n1 [Compound 51, 1-(4-(5-(4-fluorophenyl)-2H-tetrazol-2-yl)piperidin-1-yl)-2-(3-methyl-1,2,4-oxadiazol-5-yl)ethan-1-one]	7.64
Cc1noc(CC(=O)N2CCC(c3nc(-c4ccc(F)cc4)co3)CC2)n1 [Compound 52, 1-(4-(4-(4-fluorophenyl)oxazol-2-yl)piperidin-1-yl)-2-(3-methyl-1,2,4-oxadiazol-5-yl)ethan-1-one]	> 10
Cc1noc(CC(=O)N2CCC(c3noc(-c4ccc(F)cc4)n3)CC2)n1 [Compound 53, 1-(4-(5-(4-fluorophenyl)-1,2,4-oxadiazol-3-yl)piperidin-1-yl)-2-(3-methyl-1,2,4-oxadiazol-5-yl)ethan-1-one]	> 10
Cc1noc(CC(=O)N2CCC(O)(c3nc(-c4ccc(F)cc4)no3)CC2)n1 [Compound 54, 1-(4-(3-(4-fluorophenyl)-1,2,4-oxadiazol-5-yl)-4-hydroxypiperidin-1-yl)-2-(3-methyl-1,2,4-oxadiazol-5-yl)ethan-1-one]	> 10
Cc1nocc1CC(=O)N1CCC(c2nc(C3CCCCC3)no2)CC1 [Compound 55, 1-(4-(3-cyclohexyl-1,2,4-oxadiazol-5-yl)piperidin-1-yl)-2-(3-methylisoxazol-4-yl)ethan-1-one]	> 25
Cc1nocc1CC(=O)N1CCC(n2nnc(C3CCCCC3)n2)CC1 [Compound 56, 1-(4-(5-cyclohexyl-2H-tetrazol-2-yl)piperidin-1-yl)-2-(3-methylisoxazol-4-yl)ethan-1-one]	> 25
Cc1nocc1CC(=O)N1CCC(c2nc(-c3ccc(Cl)c(Cl)c3)no2)CC1 [Compound 57, 1-(4-(3-(3,4-dichlorophenyl)-1,2,4-oxadiazol-5-yl)piperidin-1-yl)-2-(3-methylisoxazol-4-yl)ethan-1-one]	0.691
Cc1nocc1CC(=O)N1CCC(c2nc(-c3ccc(F)cc3)no2)CC1 [Compound 58, 1-(4-(3-(4-fluorophenyl)-1,2,4-oxadiazol-5-yl)piperidin-1-yl)-2-(3-methylisoxazol-4-yl)ethan-1-one]	2.15
Cc1nonc1CC(=O)N1CCC(n2cc(C(=O)N3CCOCC3)nn2)CC1 [Compound 60, 2-(4-methyl-1,2,5-oxadiazol-3-yl)-1-(4-(4-(morpholine-4-carbonyl)-1H-1,2,3-triazol-1-yl)piperidin-1-yl)ethan-1-one]	> 10
Cc1nonc1CC(=O)N1CCC(c2nc(C3CC3)no2)CC1 [Compound 61, 1-(4-(3-cyclopropyl-1,2,4-oxadiazol-5-yl)piperidin-1-yl)-2-(4-methyl-1,2,5-oxadiazol-3-yl)ethan-1-one]	> 10
Cc1nonc1CC(=O)N1CCC(n2nnc(C3CC3)n2)CC1 [Compound 62, 1-(4-(5-cyclopropyl-2H-tetrazol-2-yl)piperidin-1-yl)-2-(4-methyl-1,2,5-oxadiazol-3-yl)ethan-1-one]	≥ 10
Cc1nonc1CC(=O)N1CCC(c2nc(C3CC4CCC3C4)no2)CC1 (stereo not drawn) [Compound 64, 1-(4-(3-(bicyclo[2.2.1]heptan-2-yl)-1,2,4-oxadiazol-5-yl)piperidin-1-yl)-2-(4-methyl-1,2,5-oxadiazol-3-yl)ethan-1-one]	0.447
Cc1nonc1CC(=O)N1CCC(c2noc(C3CC34CCC4)n2)CC1 (stereo not drawn) [Compound 65, 2-(4-methyl-1,2,5-oxadiazol-3-yl)-1-(4-(5-(spiro[2.3]hexan-1-yl)-1,2,4-oxadiazol-3-yl)piperidin-1-yl)ethan-1-one]	15

Source: patent US20260048047A1, “SMALL-MOLECULE ACTIVATORS OF MYCOBACTERIUM TUBERCULOSIS ADENYLYL CYCLASE” (priority 2022, published 2026)
